Data from ChEMBL document CHEMBL1156994, “Chemopreventive activities of etodolac and oxyphenbutazone against mouse skin carcinogenesis” (Bioorg Med Chem Lett, 2010).

Key:
Mus musculus [1] = assay: Inhibition of DMBA-induced/TPA-promoted skin carcinogenesis in ICR mouse assessed as reduction in tumor burden at 0.0025% topically applied qd treated one week before DMBA-TPA challenge after 20 weeks relative to control; format: functional
Mus musculus [2] = assay: Toxicity in ICR mouse at 0.0025%, po; format: organism-based; conditions: in vivo
Mus musculus [3] = assay: Inhibition of peroxynitrite-induced/TPA promoted skin carcinogenesis in HOS-HR-1 mouse assessed as increase in tumor latency period at 0.0025%, po treated one week before peroxynitrite-TPA challenge after 20 weeks relative to control; format: functional
Mus musculus [4] = assay: Inhibition of peroxynitrite-induced/TPA promoted skin carcinogenesis in HOS-HR-1 mouse assessed as decrease in tumor incidence at 0.0025%, po treated one week before peroxynitrite-TPA challenge after 20 weeks relative to control; format: functional
Mus musculus [5] = assay: Inhibition of peroxynitrite-induced/TPA promoted skin carcinogenesis in HOS-HR-1 mouse assessed as decrease in tumor burdon at 0.0025%, po treated one week before peroxynitrite-TPA challenge after 20 weeks relative to control; format: functional
Mus musculus [6] = assay: Toxicity in HOS-HR-1 mouse at 0.0025%, po; format: organism-based; conditions: in vivo

Row | Compound | inhibition (INH) (Mus musculus [1]) | Activity (Mus musculus [2]) | inhibition (INH) (Mus musculus [3]) | inhibition (INH) (Mus musculus [4]) | inhibition (INH) (Mus musculus [5]) | Activity (Mus musculus [6])
1 | CCc1cccc2c3c([nH]c12)C(CC)(CC(=O)O)OCC3 (stereo unspecified) [ETODOLAC] | 40% | Non-toxic |  |  |  | 
2 | CCCCC1C(=O)N(c2ccccc2)N(c2ccc(O)cc2)C1=O (stereo unspecified) [OXYPHENBUTAZONE ANHYDROUS] |  |  | 29% | >20% | >50% | Non-toxic
